Results: patent US11304946B2, “2-hetarylpyrimidine-4-carboxamides as aryl hydrocarbon receptor antagonists” (Bayer Aktiengesellschaft, priority 2017, dated 2022)

Experiments:
Human AhR = target: T1, Human AhR (Homo sapiens, UniProt P35869); assay: Transactivation assay in human cell line (in vitro assay 1: antagonism); assay type: cell-based; settings: U87 glioblastoma cells, AHR inducible (DRE) firefly luciferase reporter, 150 μM kynurenic acid, 20 hours
T1 construct: host or cells: U87 glioblastoma cells, stably transfected with DRE-driven firefly luciferase and constitutive renilla reporter constructs
T1 sequence (P35869 11-848): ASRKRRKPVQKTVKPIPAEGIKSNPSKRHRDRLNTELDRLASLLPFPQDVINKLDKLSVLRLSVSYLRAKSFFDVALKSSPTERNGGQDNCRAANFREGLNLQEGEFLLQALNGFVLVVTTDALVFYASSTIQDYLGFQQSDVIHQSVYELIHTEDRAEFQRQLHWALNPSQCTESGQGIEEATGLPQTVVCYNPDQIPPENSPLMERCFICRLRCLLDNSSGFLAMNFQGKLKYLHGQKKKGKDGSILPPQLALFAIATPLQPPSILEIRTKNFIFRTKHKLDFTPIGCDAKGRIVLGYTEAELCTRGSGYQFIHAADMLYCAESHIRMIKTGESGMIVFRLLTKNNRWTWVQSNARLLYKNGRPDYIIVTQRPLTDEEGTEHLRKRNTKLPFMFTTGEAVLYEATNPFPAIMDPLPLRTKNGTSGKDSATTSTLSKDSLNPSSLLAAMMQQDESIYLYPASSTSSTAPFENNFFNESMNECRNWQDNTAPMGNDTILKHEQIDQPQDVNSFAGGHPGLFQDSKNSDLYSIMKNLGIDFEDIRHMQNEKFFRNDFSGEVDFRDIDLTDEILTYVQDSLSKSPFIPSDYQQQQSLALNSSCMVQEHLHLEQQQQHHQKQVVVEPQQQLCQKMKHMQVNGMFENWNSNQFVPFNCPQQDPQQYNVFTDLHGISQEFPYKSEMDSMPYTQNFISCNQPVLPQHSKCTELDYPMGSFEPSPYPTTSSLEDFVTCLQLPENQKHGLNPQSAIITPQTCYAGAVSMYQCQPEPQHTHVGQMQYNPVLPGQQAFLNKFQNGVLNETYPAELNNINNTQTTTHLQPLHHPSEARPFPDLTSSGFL
Procedure, shortened: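 U87 glioblastoma cells with endogenous AHR, stably carrying DRE-driven firefly luciferase and constitutive Renilla reporters, prestimulated with kynurenic acid before compound. Dual luciferase read-out; Renilla signal used to flag toxicity.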

Mouse AhR = target: T2, Mouse AhR (Mus musculus, UniProt P30561); assay: Transactivation assay in mouse cell line (in vitro assay 2: antagonism); assay type: cell-based; settings: Hepa 1c1c7 cells, AHR inducible (DRE) firefly luciferase reporter, 200 μM kynurenic acid, 20 hours
T2 sequence (P30561 1-848): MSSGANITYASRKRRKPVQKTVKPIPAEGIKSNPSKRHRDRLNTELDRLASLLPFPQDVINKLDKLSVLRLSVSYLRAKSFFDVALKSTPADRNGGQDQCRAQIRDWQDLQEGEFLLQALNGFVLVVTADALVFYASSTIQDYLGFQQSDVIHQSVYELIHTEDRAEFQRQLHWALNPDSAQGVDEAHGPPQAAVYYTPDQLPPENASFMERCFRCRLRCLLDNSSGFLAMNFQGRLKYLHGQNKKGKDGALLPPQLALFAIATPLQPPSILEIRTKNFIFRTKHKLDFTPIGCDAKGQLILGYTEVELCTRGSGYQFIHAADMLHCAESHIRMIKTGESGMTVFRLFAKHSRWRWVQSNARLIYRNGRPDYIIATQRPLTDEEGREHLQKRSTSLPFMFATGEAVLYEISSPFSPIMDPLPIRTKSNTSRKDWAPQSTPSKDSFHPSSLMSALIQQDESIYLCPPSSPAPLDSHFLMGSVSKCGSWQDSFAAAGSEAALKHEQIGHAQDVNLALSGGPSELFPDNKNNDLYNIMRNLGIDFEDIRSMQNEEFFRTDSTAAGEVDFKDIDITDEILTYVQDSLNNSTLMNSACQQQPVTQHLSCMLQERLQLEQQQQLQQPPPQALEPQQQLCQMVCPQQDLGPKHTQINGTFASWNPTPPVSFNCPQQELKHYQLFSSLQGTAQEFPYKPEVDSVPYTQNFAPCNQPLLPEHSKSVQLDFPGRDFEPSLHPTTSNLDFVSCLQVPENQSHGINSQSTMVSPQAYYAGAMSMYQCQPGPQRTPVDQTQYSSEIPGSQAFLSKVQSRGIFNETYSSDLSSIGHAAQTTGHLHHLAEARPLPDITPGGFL
Procedure: Transactivation Assay in Mouse Cell Line (In Vitro Assay 2)
Transactivation assay was carried out in Hepa 1c1c7 cells (ATCC #CRL-2026) endogenously expressing AHR. In addition the cells were stably transfected with an AHR inducible firefly luciferase reporter gene construct that carried AHR-binding sites (DRE) in its promoter. Kynurenic acid is an endogenous AHR activating ligand and was used to prestimulate test cells prior to testing the antagonistic properties of compounds.
In Vitro Assay 2: Antagonism in Mouse Cell Line
Firefly luciferase activity was determined by the SteadyGlo Luciferase Assay System (Promega, #E2550).

Structure (SMILES) | IC50 (Human AhR) [nM] | IC50 (Mouse AhR) [nM]
Cc1noc(C)c1-c1nc(C(=O)N[C@@H](C)CO)cc(-c2ccc(OC(F)(F)F)cc2)n1 [Example 35, 2-(3,5-dimethyl-1,2-oxazol-4-yl)-N-[(2S)-1-hydroxypropan-2-yl]-6-[4-(trifluoromethoxy)phenyl]pyrimidine-4-carboxamide] | 1030 | 5310
CC(C)Cn1cc(-c2nc(C(=O)N[C@@H](C)CO)cc(-c3ccc(OC(F)(F)F)cc3)n2)cn1 [Example 36, N-[(2S)-1-hydroxypropan-2-yl]-2-[1-(2-methylpropyl)-1H-pyrazol-4-yl]-6-[4-(trifluoromethoxy)phenyl]pyrimidine-4-carboxamide] | 5220 | 10000
C[C@@H](CO)NC(=O)c1cc(-c2ccc(OC(F)(F)F)cc2)nc(-c2cc[nH]n2)n1 [Example 37, N-[(2S)-1-hydroxypropan-2-yl]-2-(1H-pyrazol-3-yl)-6-[4-(trifluoromethoxy)phenyl]pyrimidine-4-carboxamide] | 71.7 | 93
C[C@@H](CO)NC(=O)c1cc(-c2ccc(OC(F)(F)F)cc2)nc(-c2cn[nH]c2)n1 [Example 41, N-[(2S)-1-hydroxypropan-2-yl]-2-(1H-pyrazol-4-yl)-6-[4-(trifluoromethoxy)phenyl]pyrimidine-4-carboxamide] | 97.6 | 55.8
Cc1nn(C)cc1-c1nc(C(=O)N[C@@H](C)CO)cc(-c2ccc(OC(F)(F)F)cc2)n1 [Example 43, 2-(1,3-dimethyl-1H-pyrazol-4-yl)-N-[(2S)-1-hydroxypropan-2-yl]-6-[4-(trifluoromethoxy)phenyl]pyrimidine-4-carboxamide] | 25.2 | 271
CC(C)(O)CNC(=O)c1cc(-c2ccc(Cl)cc2)nc(-c2ccc(C#N)s2)n1 [Example 47, 6-(4-chlorophenyl)-2-(5-cyanothiophen-2-yl)-N-(2-hydroxy-2-methylpropyl)pyrimidine-4-carboxamide] | 317 | 961
Cn1nccc1-c1nc(C(=O)NCC(C)(C)O)cc(-c2ccc(Cl)cc2)n1 [Example 54, 6-(4-chlorophenyl)-N-(2-hydroxy-2-methylpropyl)-2-(1-methyl-1H-pyrazol-5-yl)pyrimidine-4-carboxamide] | 36.6 | 41.1
CC(C)(O)CNC(=O)c1cc(-c2ccc(Cl)cc2)nc(-c2cncnc2)n1 [Example 55, 6-(4-chlorophenyl)-N-(2-hydroxy-2-methylpropyl)[2,5′-bipyrimidine]-4-carboxamide] | 10.3 | 17.3
Cc1ccc(-c2nc(C(=O)NCC(C)(C)O)cc(-c3ccc(Cl)cc3)n2)cn1 [Example 60, 6-(4-chlorophenyl)-N-(2-hydroxy-2-methylpropyl)-2-(6-methylpyridin-3-yl)pyrimidine-4-carboxamide] | 64.7 | 1420
CC(C)(O)CNC(=O)c1cc(-c2ccc(Cl)cc2)nc(-c2cnn(C3CC3)c2)n1 [Example 68, 6-(4-chlorophenyl)-2-(1-cyclopropyl-1H-pyrazol-4-yl)-N-(2-hydroxy-2-methylpropyl)pyrimidine-4-carboxamide] | 7240 | 9830

The next lines start with the values.

IC50 (Human AhR) [nM] | IC50 (Mouse AhR) [nM] | Structure (SMILES)
29.6 | 24 | C[C@@H](CO)NC(=O)c1cc(-c2ccc(OC(F)(F)F)cc2)nc(-c2ccnn2C)n1 [Example 34, N-[(2S)-1-hydroxypropan-2-yl]-2-(1-methyl-1H-pyrazol-5-yl)-6-[4-(trifluoromethoxy)phenyl]pyrimidine-4-carboxamide]
68.4 | 431 | Cc1ccc(-c2nc(C(=O)N[C@@H](C)CO)cc(-c3ccc(OC(F)(F)F)cc3)n2)cn1 [Example 39, N-[(2S)-1-hydroxypropan-2-yl]-2-(6-methylpyridin-3-yl)-6-[4-(trifluoromethoxy)phenyl]pyrimidine-4-carboxamide]
4.24 | 42.6 | COc1ccncc1-c1nc(C(=O)N[C@@H](C)CO)cc(-c2ccc(OC(F)(F)F)cc2)n1 [Example 40, N-[(2S)-1-hydroxypropan-2-yl]-2-(4-methoxypyridin-3-yl)-6-[4-(trifluoromethoxy)phenyl]pyrimidine-4-carboxamide]
94.2 | 295 | C[C@@H](CO)NC(=O)c1cc(-c2ccc(Cl)cc2)nc(-c2ccc(C#N)s2)n1 [Example 70, 6-(4-chlorophenyl)-2-(5-cyanothiophen-2-yl)-N-[(2S)-1-hydroxypropan-2-yl]pyrimidine-4-carboxamide]
3.23 | 4.71 | Cc1cscc1-c1nc(C(=O)N[C@@H](C)CO)cc(-c2ccc(Cl)cc2)n1 [Example 71, 6-(4-chlorophenyl)-N-[(2S)-1-hydroxypropan-2-yl]-2-(4-methylthiophen-3-yl)pyrimidine-4-carboxamide]
32.6 | 98.2 | C[C@@H](CO)NC(=O)c1cc(-c2ccc(Cl)cc2)nc(-c2ccc(Cl)s2)n1 [Example 72, 6-(4-chlorophenyl)-2-(5-chlorothiophen-2-yl)-N-[(2S)-1-hydroxypropan-2-yl]pyrimidine-4-carboxamide]
16.3 | 28.8 | Cc1ccsc1-c1nc(C(=O)N[C@@H](C)CO)cc(-c2ccc(Cl)cc2)n1 [Example 73, 6-(4-chlorophenyl)-N-[(2S)-1-hydroxypropan-2-yl]-2-(3-methylthiophen-2-yl)pyrimidine-4-carboxamide]
33.6 | 62.9 | C[C@@H](CO)NC(=O)c1cc(-c2ccc(Cl)cc2)nc(-c2ccnn2C)n1 [Example 74, 6-(4-chlorophenyl)-N-[(2S)-1-hydroxypropan-2-yl]-2-(1-methyl-1H-pyrazol-5-yl)pyrimidine-4-carboxamide]
6.37 | 21.2 | C[C@@H](CO)NC(=O)c1cc(-c2ccc(Cl)cc2)nc(-c2cncnc2)n1 [Example 75, 6-(4-chlorophenyl)-N-[(2S)-1-hydroxypropan-2-yl][2,5′-bipyrimidine]-4-carboxamide]
108 | 671 | Cc1ccc(-c2nc(C(=O)N[C@@H](C)CO)cc(-c3ccc(Cl)cc3)n2)cn1 [Example 79, 6-(4-chlorophenyl)-N-[(2S)-1-hydroxypropan-2-yl]-2-(6-methylpyridin-3-yl)pyrimidine-4-carboxamide]
2.64 | 30.8 | COc1ccncc1-c1nc(C(=O)N[C@@H](C)CO)cc(-c2ccc(Cl)cc2)n1 [Example 80, 6-(4-chlorophenyl)-N-[(2S)-1-hydroxypropan-2-yl]-2-(4-methoxypyridin-3-yl)pyrimidine-4-carboxamide]
54.2 | 1510 | Cc1nn(C)cc1-c1nc(C(=O)N[C@@H](C)CO)cc(-c2ccc(Cl)cc2)n1 [Example 83, 6-(4-chlorophenyl)-2-(1,3-dimethyl-1H-pyrazol-4-yl)-N-[(2S)-1-hydroxypropan-2-yl]pyrimidine-4-carboxamide]
